“Also recorded” adds a separate entry of the source.

For one assay, the system named is C. elegans males. In words: Attraction assay (long-range, point source). The format is in vivo. The following applies: point source on 10 cm plate. As for the experimental part:
10 cm standard chemotaxis plates were prepared (Bargmann et al., Cell 74:515-27 (1993), which is hereby incorporated by reference in its entirety) and stored at 4° C. until the day before use. Standard 1 cm-diameter copper pipes were sectioned into 1 cm-tall segments to use for the holding chambers. The females/hermaphrodites were isolated overnight, washed 3 times in M9 buffer, and then allowed to wander on a plate pre-conditioned with 50 uL of 1000× streptomycin for 2 hours to kill any bacteria that might produce a false positive attractant. The nematodes were then washed 3 times, and the supernatant from the last wash was placed in a copper chamber, as the control, 1 cm from the border of the 10 cm plate. The nematodes were suspended in M9 within the copper chamber, 1 cm from the border opposite the control chamber. After 6 hours, they were subsequently removed and replaced with 3 μL of 1M sodium azide. 100 C. elegans adult males were isolated overnight, washed several times in ddH2O, and placed at the center of the agar plate. After several hours, males paralyzed within 2 cm of each region were scored. The Chemotaxis Index (Bargmann et al., Cell 74:515-27 (1993), which is hereby incorporated by reference in its entirety) was then used to score male chemotaxis to either point source.

In a further assay the test system is C. elegans. The following applies: shown previously; cited from earlier work.
The next assay concerns C. elegans dauer larvae. Kind of assay: Dispersal assay, C. elegans dauer. The format is in vivo. The note with it: for dauer larvae that moved away from the release location, normalized to the percent of the positive control response: physiological concentration, with 0.25% E. coli (HB101), food only control approximately 35%; for substitution for ascr#2 in the C. elegans dispersal blend: in vivo. As to the method: C. elegans dauer juveniles were washed with MILLI-Q water 3 times, placed into 6 cm petri dishes with a small amount of water, and rested overnight. Approximately 200-300 nematodes in 10 μl of water were placed on an agar plate, to which 2 μl of treatment was added. The liquid culture that produced 60% dauer animals was centrifuged, filtered with a 0.45 μm filter, and used as a positive control for dispersal. Thereafter, media were lyophilized and resuspended in MILLI-Q water 5 times. 2 μl to 10 μl of nematode suspension was used for the assay. As a negative control, 0.5% E. coli (HB101) was prepared in S-complete, lyophilized, and adjusted to the final volume of 0.25% E. coli in the assay.
Nematodes were quantified using Image J software (Image Processing and Analysis in Java, National Institutes of Health). The number of nematodes visualized and counted using Image J is illustrated in FIG. 63B. Nematodes inside the circle were subtracted manually from the total number of worms counted because of the location of their placement. Each treatment was replicated 9-11 times. The graph was normalized to the positive control, the dauer conditioned medium.

For assay [1], the system named is C. elegans hermaphrodites and males. The note with it: from 1 μM concentration; previous study (Srinivasan 2008); cited from earlier work.
Assay [2] deals with several of the tested nematode species. In words: Retention assay, several nematode species. The note with it: 1 nM, 1 μM and 1 mM tested. Type of assay: in vivo. As to the method:
OP50 E. coli was grown on a standard 5 cm agar plate (made with standard Nematode Growth Medium). The bacterial lawn was 16 mm in diameter and was grown overnight at 20° C. before being used in trials. Two 4 mm spots (0.6 μL) were placed on opposite sides of the bacterial lawn (using a transparent template to guide spot placement), and several minutes elapsed for the liquid to settle in before placing nematodes down on the assay. Recording began immediately upon worm placement. 0.6 μL of the control was placed on one side of the lawn, and 0.6 μL of the experimental cue was placed on the other side of the lawn, changing the location of the cue throughout trials between left/right and top/bottom to avoid bias.
Nematodes were isolated by gender at the L4 stage the day before being used in trials as developed adults. Worms were evenly divided and placed at two points equidistant from the foci of the scoring region. Trials were recorded for 20 minutes, and frames were collected for analysis at 1 frame per second. Results were averaged from at least three different trials. For every nematode species in this study, a different total number of worms (using water in both scoring regions) was tested to determine the minimum number of worms necessary for consistent unbiased results over a 20 minute trial. The total number of worms used in the multiple species assays depended on that species' optimal parameters. 10 worms were used for P. redivivus males and females, 20 worms were used for C. elegans males and O. dolichuridae males, and 14 worms were used for S. glaseri males. The Automated Software was used to compare worm occupancy in each scoring region over time, and the Chemotaxis Index (Bargmann et al., Cell 74:515-27 (1993), which is hereby incorporated by reference in its entirety) was adapted to score preference or avoidance to each ascaroside.
A video camera attached to the microscope produced a digital video stream, which was then analyzed. The ratio of the time the average worm spent in each region of interest was calculated for every trial. For ease of implementation, all worms in a single experiment were assumed to be roughly the same size. Thus worm pixels were counted instead of whole worms, allowing fractions of a worm in the region of interest to be taken into account. It also eliminated the need for a shape-based worm identification algorithm, and allowed each frame to be analyzed independently. A band-pass filter was applied to each frame to eliminate the effect of uneven lighting and also accentuate the worms against the background. The worm was then identified after thresholding the filtered image. Throughout each experiment, the locations and sizes of the regions of interest were known. Through the filtering described above, it is known which pixels are occupied by worms and which ones are not. Thus, the ratio of worm-pixels to all pixels inside the region of interest can be calculated to produce the worm-occupancy ratio. This calculation was done for every frame, giving a plot output of worm-occupancy ratio vs. time for each region.

The next assay concerns S. feltiae IJs. Kind of assay: Dispersal assay, S. feltiae infective juveniles. Type of assay: in vivo. The following applies: for dispersal activity in combination with natural fractions B and C: ascr#9 40 pmol/μl, ascr#11 1.3 pmol/μl; for dispersal activity when tested alone: physiologically relevant concentrations. As to the method: S. feltiae IJs were washed with MILLI-Q water three times and incubated in 6 cm petri dishes for […] with a small amount (4-5 ml) of MILLI-Q water. Nematodes were placed the following day on a 10.7 g/L agar with 1010 g/cm^2 gel strength (PhytoTechnology Lab. Shawnee Mission, Kans.). Nematode behavior was assayed on multiple plates with internal plate replicates to rule out the possibility that behavior was affected by plate composition. Approximately 300 IJs in 10 μl water were placed on an agar medium and the test compounds or extracts (1-2 μl) were placed into the nematode suspension. Upon absorption (˜15 minutes) of the liquid, the freely moving nematodes were video recorded for 5-10 minutes. Dispersal behavior is temperature and season dependent. During winter, the assay is effective at room temperature (22±1° C.). During summer, the assay requires a temperature controlled environment due to the effects on nematode behavior above 23° C.
Activity-guided fractionation was conducted as reported in Srinivasan et al., Nature 454:1115-18 (2008), which is hereby incorporated by reference in its entirety, with modifications. A total of 33 insect host cadavers (G. mellonella larvae) were placed into 70% EtOH and stored at −20° C. until extraction. The insect cadavers were homogenized using 1 g of ceramic zirconium beads (1.25 mm) (ZIRMIL) in 2 ml tubes for 37 seconds using a Precellys24 homogenizer. Samples were centrifuged for 15 minutes at 18400 relative centrifugal force (rcf), and the supernatant was lyophilized and resuspended in MILLI-Q water. The dispersal activity of nematodes was tested using the dispersal assay described in Example 60 and a physiologically relevant concentration of insect host cadaver extract or fractionated extract. To facilitate calculations for physiologically relevant concentration of the ascarosides, wax worm volume was estimated at ˜200 μl; the average weight of wax worms was 232+57 mg (n=19).
The first reverse-phase solid-phase extraction was performed using Sep-Pak Plus C18 cartridges (Waters corporation, Milford, Mass.). The initially collected flow through was termed Fraction A. Thereafter, the column was washed with water, collected, and saved. Subsequently, the column was eluted with 50% (Fraction B) and 90% (Fraction C) MeOH. The fractions were tested for dispersal activity both individually and in combination. Also, individual fractions were analyzed by LC-MS. Fraction A contained ascr#9, which was collected by LC-MS and tested for activity with Fraction B+C.

For assay [3], the system named is P. pacificus strain RSB020. In words: Mouth-form dimorphism assay. The note with it: synthetic samples; first assayed at 1 μM. The format is in vivo, Pristionchus pacificus. As for the experimental part:
Mouth-form dimorphism assays were performed using P. pacificus strain RSB020. The synthetic compounds dissolved in ethanol (0.5 mM) were diluted with water to make 100 μl solution and subsequently added to 3 mL NGM-agar (1 μM final concentration). The assay plates were seeded with 50 μl OP50 culture in LB medium and incubated overnight at 20° C. to allow bacterial growth. Each replicate included the progeny of two mothers, which were picked as adult hermaphrodites of a consistent age (carrying 4-6 eggs) and which were all from the same P. pacificus culture plate. Following the placement of mothers on assay plates, plates were kept at 20° C. for six days, such that the entire broods were adults at the time of screening. A random sample of 50 hermaphrodite progeny was screened per plate. All animals were screened by differential interference contrast (DIC) microscopy on a Zeiss Axiskop. The following discrete characters were used to discriminate eurystomatous from stenostomatous individuals, respectively: (1) claw-shaped vs. flint-shaped (i.e. dorsoventrally symmetrical) dorsal tooth; (2) presence vs. absence of a subventral tooth; (3) strongly vs. weakly sclerotized stomatal walls. No intermediate mouth-forms were observed. Experiments were conducted in triplicate for each treatment. In assays of responses to compounds of several concentrations (1, 0.3, 0.1, 0.03, 0.01 μM final concentrations), experiments were performed as described above, with the following modifications. To allow greater resolution of responses to lower concentrations, 60 randomly screened individuals in each of five replicates per concentration per compound were assayed. All concentration-curve experiments were performed in parallel using mothers picked randomly from the same two source populations. To prepare large numbers of individual mothers for these experiments, source populations were established from virgin hermaphrodites to constrain the presence of males and were conditioned to well-fed and ambient conditions for at least one generation before mothers were picked for the assays.

As to `CC(=O)CCC[C@@H](C)O[C@@H]1O[C@@H](C)[C@H](O)C[C@H]1O` [ascr#2], in the assay with C. elegans males, the “lowest amount eliciting male attraction (as low as)” value was found to be 500 attomol and the “male attraction from a distance / chemotaxis towards a point source” value was “chemotax towards”. Moreover, the “promotion of dauer entry” value with C. elegans is recorded as “individually promote dauer entry”. Besides, the “dauer larvae that moved away from the release location, normalized to the percent of the positive control response” value in the assay with C. elegans dauer larvae is 40%. The “most active amount for attraction in C. elegans” value in assay [1] is around 1 pmol.
Regarding `C[C@H](CC/C=C/C(=O)Nc1ccc(C(=O)O)cc1)O[C@@H]1O[C@@H](C)[C@H](O)C[C@H]1O` [ascr#8], in the assay on C. elegans males, the “male attraction from a distance / chemotaxis towards a point source” value is on record as “not active”. For the same compound, in assay [2], the “preference for areas conditioned by the ascaroside” value is “preferred”. Moreover, in the assay with C. elegans, the “promotion of dauer entry” value is listed as “individually promote dauer entry”. In addition, the “dauer larvae that moved away from the release location, normalized to the percent of the positive control response” value with C. elegans dauer larvae is listed as 50%.
`C[C@H](CCC(=O)O)O[C@@H]1O[C@@H](C)[C@H](O)C[C@H]1O` [ascr#9]: the “dispersal activity in combination with natural fractions B and C” value in the assay on S. feltiae IJs is given as “restored the original dispersal activity”. For the same compound, the “dispersal activity when tested alone” value in the assay with S. feltiae IJs is reported as “did not have activity by themselves”. Also, in assay [2], the “preference for areas conditioned by the ascaroside” value is “preferred”. The “induction of the eurystomatous mouth form” value in assay [3] was “inactive”. Besides, the “substitution for ascr#2 in the C. elegans dispersal blend” value with C. elegans dauer larvae was “can replace the function of ascr#2”; in the assay with C. elegans dauer larvae (listed as Ascr#9) it was “able to substitute for its structural analog ascr#2”.
For `C[C@H](CC(=O)O)O[C@@H]1O[C@@H](C)[C@H](O)C[C@H]1O` [ascr#11], in the assay with S. feltiae IJs, the “dispersal activity in combination with natural fractions B and C” value is reported as “restored the full activity; also recorded: sufficient to cause dispersal”; the “dispersal activity when tested alone” value was “did not have activity by themselves”.

Values taken from US9445596B2, “Small molecule compounds for the control of nematodes” (California Institute of Technology, priority 2011, dated 2016).
